Measured values from US7186714B2, “Imidazo[1,2-α]pyridine derivatives for the prophylaxis and treatment of herpes viral infections” (SmithKline Beecham Corporation, priority 2001, dated 2007).

Tested on: HSV-1
Test: HSV infection of Vero 76 cells, viral DNA detected by hybridization capture with chemiluminescence
Type: cell-based
Settings: Human alphaherpesvirus 1; HSV-1 in Vero 76 cells, MOI=0.001, incubated 40–48 hours with test compound
Protocol: Vero 76 cells were maintained in MEM with Earle's salts, L-glutamine, 8% FBS (Hyclone, A-1111-L) and 100 units/mL Penicillin-100 μg/mL Streptomycin. For assay conditions, FBS was reduced to 2%. Cells are seeded into 96-well tissue culture plates at a density of 5×10^4 cells/well after being incubated for 45 min at 37° C. in the presence of HSV-1 or HSV-2 (MOI=0.001). Test compounds are added to the wells and the plates are incubated at 37° C. for 40–48 hours. Cell lysates are prepared as follows: media was removed and replaced with 150 μL/well 0.2 N NaOH with 1% Igepal CA 630 or NP-40. Plates were incubated up to 14 days at room temperature in a humidified chamber to prevent evaporation.
For the detection probe, a gel-purified, digoxigenin-labeled, 710-bp PCR fragment of the HSV UL-15 sequence was utilized. PCR conditions included 0.5 μM primers, 180 μM dTTP, 20 μM dUTP-digoxigenin (Boehringer Mannheim 1558706), 200 μM each of dATP, dCTP, and dGTP, 1×PCR Buffer II (Perkin Elmer), 2.5 mM MgCl2, 0.025 units/μL of AmpliTaq Gold polymerase (Perkin Elmer), and 5 ng of gel-purified HSV DNA per 100 μL Extension conditions were 10 min at 95° C., followed by 30 cycles of 95° C. for 1 min, 55° C. for 30 sec, and 72° C. for 2 min. The amplification was completed with a 10-min incubation at 72° C. Primers were selected to amplify a 728 bp probe spanning a section of the HSV1 UL15 open reading frame (nucleotides 249–977). Single-stranded transcripts were purified with Promega M13 Wizard kits. The final product was mixed 1:1 with a mixture of 6 M GuSCN, 100 mM EDTA and 200 μg/mL herring sperm DNA and stored at 4° C.
The capture DNA plasmid (HSV UL13 region in pUC) was linearized by cutting with XbaI, denatured for 15 min at 95° C. and diluted immediately into Reacti-Bind DNA Coating Solution (Pierce, 17250, diluted 1:1 with TE buffer, pH 8) at 1 ng/μL 75 μL/well were added to Corning (#3922 or 9690) white 96-well plates and incubated at room temperature for at least 4 hrs before washing twice with 300 μL/well 0.2×SSC/0.05% Tween-20 (SSC/T buffer). The plates were then incubated overnight at room temperature with 150 μL/well 0.2 N NaOH, 1% IGEPAL and 10 μg/mL herring sperm DNA.
Twenty-seven (27) μL of cell lysate was combined with 45 μL of hybridization solution (final concentration: 3M GuSCN, 50 mM EDTA, 100 μg/ml salmon sperm DNA, 5×Denhardt's solution, 0.25×APE, and 5 ng of the digoxigenin-labeled detection probe). APE is 1.5 M NH4-acetate, 0.15 M ammonium phosphate monobasic, and 5 mM EDTA adjusted to pH 6.0. Mineral oil (50 μL) was added to prevent evaporation. The hybridization plates were incubated at 95° C. for 10 minutes to denature the DNA, then incubated at 42° C. overnight. The wells were washed 6× with 300 μL/well SSC/T buffer then incubated with 75 μL/well anti-digoxigenin-HRP-conjugated antibody (Boehringer Mannheim 1207733, 1:5000 in TE) for 30 min at room temperature. The wells were washed 6× with 300 μL/well with PBS/0.05% Tween-20 before 75 μL/well SuperSignal LBA substrate (Pierce) was added. The plates were incubated at room temperature for 30 minutes and chemiluminescence was measured in a Wallac Victor reader.

SMILES | IC50
Nc1cccn2c(-c3ccnc(NC4CCCC4)n3)c(-c3ccc(F)cc3)nc12 [Example 1, 3-[2-(Cyclopentylamino)-4-pyrimidinyl]-2-(4-fluorophenyl)imidazo[1,2-α]pyridin-8-amine] | 0.6 µM
Fc1ccc(-c2nc3c(Cl)cccn3c2-c2ccnc(NC3CCCC3)n2)cc1 [Example 2, 4-[8-Chloro-2-(4-fluorophenyl)imidazo[1,2-α]pyridin-3-yl]-N-cyclopentyl-2-pyrimidinamine] | 3.9 µM
Fc1ccc(-c2nc3c(NC4CCCC4)cccn3c2-c2ccnc(NC3CCCC3)n2)cc1 [Example 3, N-Cyclopentyl-3-[2-(cyclopentylamino)-4-pyrimidinyl]-2-(4-fluorophenyl)imidazo[1,2-α]pyridin-8-amine] | 0.4 µM
Fc1ccc(-c2nc3c(N4CCCC4)cccn3c2-c2ccnc(NC3CCCC3)n2)cc1 [Example 4, N-Cyclopentyl-4-[2-(4-fluorophenyl)-8-(1-pyrrolidinyl)imidazo[1,2-α]pyridin-3-yl]-2-pyrimidinamine] | 1.4 µM
CCCCNc1cccn2c(-c3ccnc(NC4CCCC4)n3)c(-c3ccc(F)cc3)nc12 [Example 5, N-Butyl-3-[2-(cyclopentylamino)-4-pyrimidinyl]-2-(4-fluorophenyl)imidazo[1,2-α]pyridin-8-amine] | 0.65 µM
COCCNc1cccn2c(-c3ccnc(NC4CCCC4)n3)c(-c3ccc(F)cc3)nc12 [Example 6, 3-[2-(Cyclopentylamino)-4-pyrimidinyl]-2-(4-fluorophenyl)-N-(2-methoxyethyl)imidazo[1,2-α]pyridin-8-amine] | 0.34 µM
CNc1nccc(-c2c(-c3ccc(F)cc3)nc3c(Cl)cccn23)n1 [Example 7, 4-[8-Chloro-2-(4-fluorophenyl)imidazo[1,2-α]pyridin-3-yl]-N-methyl-2-pyrimidinamine] | 2.4 µM
CNc1nccc(-c2c(-c3ccc(F)cc3)nc3c(NC4CCCC4)cccn23)n1 [Example 8, N-Cyclopentyl-2-(4-fluorophenyl)-3-[2-(methylamino)-4-pyrimidinyl]imidazo[1,2-α]pyridin-8-amine] | > 5 µM
COc1ccc(-c2nc3c(Cl)cccn3c2-c2ccnc(NC3CCCC3)n2)cc1 [Example 9, 4-[8-Chloro-2-(4-methoxyphenyl)imidazo[1,2-α]pyridin-3-yl]-N-cyclopentyl-2-pyrimidinamine] | 1.2 µM
COc1ccc(-c2nc3c(NC4CCCC4)cccn3c2-c2ccnc(NC3CCCC3)n2)cc1 [Example 10, N-Cyclopentyl-3-[2-(cyclopentylamino)-4-pyrimidinyl]-2-(4-methoxyphenyl)imidazo[1,2-α]pyridin-8-amine] | 1.75 µM
Oc1ccc(-c2nc3c(NC4CCCC4)cccn3c2-c2ccnc(NC3CCCC3)n2)cc1 [Example 11, 4-{8-(Cyclopentylamino)-3-[2-(cyclopentylamino)-4-pyrimidinyl]imidazo[1,2-α]pyridin-2-yl}phenol] | 3.3 µM
COc1cccc(-c2nc3c(Cl)cccn3c2-c2ccnc(NC3CCCC3)n2)c1 [Example 15, 4-[8-Chloro-2-(3-methoxyphenyl)imidazo[1,2-α]pyridin-3-yl]-N-cyclopentyl-2-pyrimidinamine] | 2.3 µM
COc1cccc(-c2nc3c(NC4CCCC4)cccn3c2-c2ccnc(NC3CCCC3)n2)c1 [Example 16, N-Cyclopentyl-3-[2-(cyclopentylamino)-4-pyrimidinyl]-2-(3-methoxyphenyl)imidazo[1,2-α]pyridin-8-amine] | 0.37 µM
Oc1cccc(-c2nc3c(NC4CCCC4)cccn3c2-c2ccnc(NC3CCCC3)n2)c1 [Example 17, 3-{8-(Cyclopentylamino)-3-[2-(cyclopentylamino)-4-pyrimidinyl]imidazo[1,2-α]pyridin-2-yl}phenol] | 3.1 µM
C=CCOc1cccc(-c2nc3c(NC4CCCC4)cccn3c2-c2ccnc(NC3CCCC3)n2)c1 [Example 18, 2-[3-(Allyloxy)phenyl]-N-cyclopentyl-3-[2-(cyclopentylamino)-4-pyrimidinyl]imidazo[1,2-α]pyridin-8-amine] | 0.34 µM
Cc1ccc(-c2nc3c(Cl)cccn3c2-c2ccnc(NC3CCCC3)n2)cc1 [Example 19, 4-[8-Chloro-2-(4-methylphenyl)imidazo[1,2-α]pyridin-3-yl]-N-cyclopentyl-2-pyrimidinamine] | 3.74 µM
Cc1ccc(-c2nc3c(NC4CCCC4)cccn3c2-c2ccnc(NC3CCCC3)n2)cc1 [Example 20, N-Cyclopentyl-3-[2-(cyclopentylamino)-4-pyrimidinyl]-2-(4-methylphenyl)imidazo[1,2-α]pyridin-8-amine] | 0.71 µM
COCCNc1cccn2c(-c3ccnc(NC4CCCC4)n3)c(-c3ccc(C)cc3)nc12 [Example 21, 3-[2-(Cyclopentylamino)-4-pyrimidinyl]-N-(2-methoxyethyl)-2-(4-methylphenyl)imidazo[1,2-α]pyridin-8-amine] | 0.64 µM
Cc1ccc(-c2nc3c(N4CCOCC4)cccn3c2-c2ccnc(NC3CCCC3)n2)cc1 [Example 22, N-Cyclopentyl-4-[2-(4-methylphenyl)-8-(4-morpholinyl)imidazo[1,2-α]pyridin-3-yl]-2-pyrimidinamine] | 0.84 µM
Clc1cccn2c(-c3ccnc(NC4CC4)n3)c(-c3ccc4ccccc4c3)nc12 [Example 23, 4-[8-Chloro-2-(2-naphthyl)imidazo[1,2-α]pyridin-3-yl]-N-cyclopropyl-2-pyrimidinamine] | 0.21 µM
c1ccc2cc(-c3nc4c(NC5CC5)cccn4c3-c3ccnc(NC4CC4)n3)ccc2c1 [Example 24, N-Cyclopropyl-3-[2-(cyclopropylamino)-4-pyrimidinyl]-2-(2-naphthyl)imidazo[1,2-α]pyridin-8-amine] | 0.56 µM
N#Cc1ccc(-c2nc3c(Cl)cccn3c2-c2ccnc(NC3CCCC3)n2)cc1 [Example 25, 4-{8-Chloro-3-[2-(cyclopentylamino)-4-pyrimidinyl]imidazo[1,2-α]pyridin-2-yl}benzonitrile] | 0.3 µM
N#Cc1ccc(-c2nc3c(NC4CCCC4)cccn3c2-c2ccnc(NC3CCCC3)n2)cc1 [Example 26, 4-{8-(Cyclopentylamino)-3-[2-(cyclopentylamino)-4-pyrimidinyl]imidazo[1,2-α]pyridin-2-yl}benzonitrile] | 0.31 µM
N#Cc1ccc(-c2nc3c(N4CCOCC4)cccn3c2-c2ccnc(NC3CCCC3)n2)cc1 [Example 27, 4-[3-[2-(Cyclopentylamino)-4-pyrimidinyl]-8-(4-morpholinyl)-imidazo[1,2-α]pyridin-2-yl]benzonitrile] | 0.2 µM
NC(=O)c1ccc(-c2nc3c(N4CCOCC4)cccn3c2-c2ccnc(NC3CCCC3)n2)cc1 [Example 28, 4-[3-[2-(Cyclopentylamino)-4-pyrimidinyl]-8-(4-morpholinyl)imidazo[1,2-α]pyridin-2-yl]benzamide] | 6.3 µM
NC(=O)c1ccc(-c2nc3c(NC4CCCC4)cccn3c2-c2ccnc(NC3CCCC3)n2)cc1 [Example 29, 4-{8-(Cyclopentylamino)-3-[2-(cyclopentylamino)-4-pyrimidinyl]imidazo[1,2-α]pyridin-2-yl}benzamide] | > 5 µM
O=[N+]([O-])c1cccc(-c2nc3c(Cl)cccn3c2-c2ccnc(NC3CCCC3)n2)c1 [Example 30, N-{4-[8-Chloro-2-(3-nitrophenyl)imidazo[1,2-α]pyridin-3-yl]-2-pyrimidinyl}-N-cyclopentylamine] | 1.6 µM
O=[N+]([O-])c1cccc(-c2nc3c(N4CCOCC4)cccn3c2-c2ccnc(NC3CCCC3)n2)c1 [Example 31, N-Cyclopentyl-4-[8-(4-morpholinyl)-2-(3-nitrophenyl)imidazo[1,2-α]pyridin-3-yl]-2-pyrimidinamine] | 1.2 µM
Nc1cccc(-c2nc3c(Cl)cccn3c2-c2ccnc(NC3CCCC3)n2)c1 [Example 32, 4-[2-(3-Aminophenyl)-8-chloroimidazo[1,2-α]pyridin-3-yl]-N-cyclopentyl-2-pyrimidinamine] | 3.3 µM
